Experimental findings from patent US20250073249A1, “STEROID COMPOUND, AND PREPARATION METHOD THEREFOR AND USE THEREOF” (SHANGHAI INSTITUTE OF MATERIA MEDICA, CHINESE ACADEMY OF …, priority 2022, published 2025) are described below.

For orientation: DC50 means the concentration giving 50% degradation. Read a low DC50 as a more potent degrader. As a reminder, the IC50 is the midpoint of a concentration-inhibition curve. By AUC(0-inf) is commonly meant the area under the concentration-time curve extrapolated to infinity. A low value points to low exposure. As a reminder, the AUC(0-t) is exposure summed from dosing to a finite time, without extrapolation to infinity. The low end stands for less exposure, the high end for more exposure. In general, half-life refers to the time needed for the level to fall by half in the phase considered. Lower therefore signals fast loss. A word on the Cmax: it is the peak of the concentration-time curve.

The target in one series is T1, AR (Homo sapiens, UniProt P10275, T878A).
T1 construct: endogenous in cells; host or cells: LNCaP
T1 sequence (P10275 1-920 T878A): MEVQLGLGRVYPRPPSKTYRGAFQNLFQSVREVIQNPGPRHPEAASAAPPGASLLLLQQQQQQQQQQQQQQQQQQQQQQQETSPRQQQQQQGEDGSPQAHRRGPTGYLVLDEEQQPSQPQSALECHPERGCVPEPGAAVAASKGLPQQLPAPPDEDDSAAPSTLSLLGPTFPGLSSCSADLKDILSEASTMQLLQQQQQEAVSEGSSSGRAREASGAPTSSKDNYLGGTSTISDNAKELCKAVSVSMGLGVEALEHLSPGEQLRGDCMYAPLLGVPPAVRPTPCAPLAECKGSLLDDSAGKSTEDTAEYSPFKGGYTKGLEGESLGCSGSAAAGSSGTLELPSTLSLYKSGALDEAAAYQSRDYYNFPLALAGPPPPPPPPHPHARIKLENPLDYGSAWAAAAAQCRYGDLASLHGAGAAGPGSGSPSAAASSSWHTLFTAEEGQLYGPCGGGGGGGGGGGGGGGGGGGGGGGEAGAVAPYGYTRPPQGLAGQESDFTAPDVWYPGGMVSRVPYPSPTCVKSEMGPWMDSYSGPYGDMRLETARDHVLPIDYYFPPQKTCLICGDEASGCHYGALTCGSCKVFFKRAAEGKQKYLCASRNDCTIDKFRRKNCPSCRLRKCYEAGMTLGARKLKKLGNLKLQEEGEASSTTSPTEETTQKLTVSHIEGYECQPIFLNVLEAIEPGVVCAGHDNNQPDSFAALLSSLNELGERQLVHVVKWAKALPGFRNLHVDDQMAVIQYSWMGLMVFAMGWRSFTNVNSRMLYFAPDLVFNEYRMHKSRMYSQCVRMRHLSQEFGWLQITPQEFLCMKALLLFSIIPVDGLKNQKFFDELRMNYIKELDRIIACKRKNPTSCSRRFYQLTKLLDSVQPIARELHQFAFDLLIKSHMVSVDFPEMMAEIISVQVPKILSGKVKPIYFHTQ
The experiment in a line: In vitro AR degradation activity test in LNCaP cells (ELISA, OD450). Type of series: cell-based. The settings on record: for DC50: LNCaP cells, 24 hours. The protocol: The cells were then digested with trypsin and counted using an automated cell counter. The cell suspension was diluted to the desired density in growth medium. The cell suspension was then seeded into 96-well plates at 100 μL per well, and the plates were incubated at 37° C. with 5% CO2 for 24 hours. The compounds were then diluted 200-fold to the final concentration with DMSO or 3-fold to the final concentration with culture medium. 50 μL of compound solution was transferred to the 96-well plate and incubated at 37° C. for 24 hours. After 24 hours of incubation, the cell plate was washed 3 times with DPBS, 100 μL of 1× lysis buffer was added to each well, and placed on ice for 30 minutes. The supernatant was collected. The protein in the cell lysate samples was quantified and then diluted to the required concentration. 100 μL of cell lysate sample was added to the appropriate wells, sealed with tape and pressed firmly on top of the wells, and the plate was incubated at 37° C. for 2 hours. The plate contents were then discarded, and washed 4 times with 1× wash buffer, 200 μL per well each time. 100 μL of reconstituted detection antibody was then added, the plate was sealed with tape and incubated at 37° C. for 1 hour. The aspiration/wash step was then repeated, 100 μL of reconstituted HRP-Linked secondary antibody was added to each well, the plate was sealed with tape and incubated at 37° C. for 30 minutes. The aspiration/wash step was then repeated, 100 μL of substrate solution was added to each well and incubated at 37° C. for 10 minutes, and finally 100 μL of stop solution was added to each well. The plate was gently tapped to ensure thorough mixing, and the OD450 nm was recorded.
Degradation rate (%)=(OD450_max−OD450_sample)/(OD450_max−OD450_min)×100,plotted using GraphPad Prism 5 software, and IC50 is calculated using SPSS software.
(In general: An ELISA detects its analyte on a solid surface through an enzyme-linked reagent.)

A further series has as its system LNCaP cells. The experiment in a line: In vitro LNCaP cell proliferation inhibition test (CellTiter-Glo). The settings on record: for Maximum Inhibition (%) / IC50: 6 days; for IC50: Homo sapiens, read-out: Anti-proliferative activity IC50. In kind it is cell-based. On the procedure: The cells were then digested with trypsin and counted using an automated cell counter to determine cell density. The cell suspension was diluted to the desired density in growth medium. Subsequently, 100 μL of the cell suspension was seeded into 96-well plates and incubated at 37° C. with 5% CO2 for 24 hours. 10 μL of drug solution (including 3-fold serial dilutions of compounds or DMSO) was added to each well, and the plates were incubated at 37° C. with 5% CO2 for 6 days. Prior to measurement, the assay plates were equilibrated to room temperature. 40 μL of CellTiter-Glo® reagent was added to each well. The plates were mixed on an orbital shaker for 2 minutes to induce cell lysis. After incubation at room temperature for 60 minutes to stabilize the luminescence signal, the plates were read on an Envision plate reader.
In general terms: Cellular ATP, detected with luciferase, serves as a proxy for viable cell number.

Series [1] can be described thus: In vivo pharmacokinetics in rats after oral gavage. Particulars: male SD rats, PO 10 mg/kg. The protocol: Male SD rats were randomly divided into 6 groups, 3 rats per group. The rats were fasted but not water-deprived for 12-14 h one day before dosing. The test samples were then dissolved in a solvent of 5% DMSO+30% PEG400+65% (0.5% MC) and administered by gavage at 10 mg/kg. Food was provided 4 h after dosing. Blood samples (0.10 mL) were collected via the orbital sinus at 0, 15, 30 min, 1, 2, 4, 6, 8, and 24 h, with EDTA-K2 as anticoagulant. Blood samples were placed on ice after collection and centrifuged to separate plasma within 30 minutes (centrifugation conditions: 5000 rpm, 10 minutes, 4° C.). 50.0 μL of plasma sample (taken from −80° C. freezer, thawed naturally at room temperature and vortexed for 30 seconds) was added to a 1.5 mL centrifuge tube, followed by addition of 500 μL internal standard solution (methanol (TEDIA, HPLC grade), acetonitrile (TEDIA, HPLC grade), formic acid (FA, ACROS ORGANICS, HPLC grade), water was laboratory-made ultrapure water (100.0 ng·mL−1)). The mixture was vortexed for 60 seconds and centrifuged for 3 minutes (centrifugal force 12000 rpm). 100 μL of the supernatant was transferred to a 96-well injection plate containing an equal volume of water, mixed by shaking, and analyzed by LC-MS/MS with an injection volume of 10 μL. The data acquisition and control system software was Analyst 1.5.1 software (Applied Biosystem). The chromatographic sample peaks were integrated automatically. The ratio of sample peak area to internal standard peak area was used as an indicator for regression with sample concentration.
The pharmacokinetic parameters of representative compounds of the present invention were tested in male SD rats after oral gavage administration at 10 mg/kg according to the above conventional method to examine the pharmacokinetic characteristics of the compounds of the present invention in rats.

For the molecule `C[C@]12CC[C@H](NC(=O)c3cccnc3)CC1=CCC1C2CC[C@]2(C)C(c3cccnc3)=CCC12` (stereo partly drawn) [Compound 3, N-((3S,10R,13S)-10,13-dimethyl-17-(pyridin-3-yl)-2,3,4,7,8,9,10,11,12,13,14,15-dodecahydro-1H-cyclopenta[a]phenanthren-3-yl)nicotinamide], half-maximal degradation on AR (DC50) was put at 2.87 µM.
Regarding `Cc1cn(C2=CCC3C4CC=C5C[C@@H](NC(=O)c6ccc(C#N)cc6)CC[C@]5(C)C4CC[C@]23C)cn1` (stereo partly drawn) [Compound 36, N-((3S,10R,13S)-17-(4-methyl-1H-imidazol-1-yl)-10,13-dimethyl-2,3,4,7,8,9,10,11,12,13,14,15-dodecahydro-1H-cyclopenta[a]phenanthren-3-yl)-4-cyanobenzamide], in the series on LNCaP cells, the “Maximum Inhibition (%)” value amounted to 99.38% and the IC50 was 643 nM. The molecule further gave a DC50 at AR of 1.37 µM. The “AR degradation activity, improvement compared to Galeterone” value on AR (ratio to Galeterone DC50) is recorded as 7.6 times.
Consider `C[C@]12CC[C@H](O)CC1=CC[C@@H]1[C@@H]2CC[C@]2(C)C(c3cccnc3)=CC[C@@H]12` [Abiraterone, abiraterone, reference compound], for which, in series [1], the Kel came out at 0.298 h⁻¹ and the MRTPO was found to be 4.60 h. In series [1] (rat, plasma), this molecule had an AUC(0-inf) of 198 ng·h/mL, an AUC(0-t) of 163 ng·h/mL and a half-life of 142 min. In series [1] (rat, plasma, read-out: Cmax), the Cmax came out at 48.4 ng/mL. For the same molecule, the tmax in series [1] (rat, plasma, read-out: tmax) is 1.83 h. In the series on LNCaP cells, the “Maximum Inhibition (%)” value is given as 84.06% and the IC50 worked out at 2800 nM.
For `CCc1cn(C2=CCC3C4CC=C5C[C@@H](NC(=O)c6ccncc6)CC[C@]5(C)C4CC[C@]23C)cn1` (stereo partly drawn) [Compound 18, N-((3S,10R,13S)-17-(4-ethyl-1H-imidazol-1-yl)-10,13-dimethyl-2,3,4,7,8,9,10,11,12,13,14,15-dodecahydro-1H-cyclopenta[a]phenanthren-3-yl)isonicotinamide], in the series on LNCaP cells, the “Maximum Inhibition (%)” value was 98.53% and the IC50 was found to be 356 nM. Besides, the “Anti-proliferative activity, fold improvement compared to abiraterone” value in the series on LNCaP cells (ratio to abiraterone IC50) is reported as 7.9 fold. The molecule further registered a DC50 at AR of 3.21 µM.
For the molecule `CCc1cn(C2=CCC3C4CC=C5C[C@@H](NC(=O)c6ccnnc6)CC[C@]5(C)C4CC[C@]23C)cn1` (stereo partly drawn) [Compound 19], in the series with LNCaP cells, the “Maximum Inhibition (%)” value stood at 97.68% and the IC50 turned out to be 427 nM.
The matching figures for `C[C@]12CC[C@H](NC(=O)c3ccnnc3)CC1=CCC1C2CC[C@]2(C)C(n3cnc4ccccc43)=CCC12` (stereo partly drawn) [Compound 9]: 95.87% and 765 nM.
In the case of `CC(C)c1cn(C2=CCC3C4CC=C5C[C@@H](NC(=O)c6ccncc6)CC[C@]5(C)C4CC[C@]23C)cn1` (stereo partly drawn) [Compound 20, N-((3S,10R,13S)-17-(4-isopropyl-1H-imidazol-1-yl)-10,13-dimethyl-2,3,4,7,8,9,10,11,12,13,14,15-dodecahydro-1H-cyclopenta[a]phenanthren-3-yl)isonicotinamide], in the series on LNCaP cells, the “Maximum Inhibition (%)” value amounted to 94.04% and the IC50 was 734 nM.
On to `C[C@]12CC[C@H](NC(=O)c3ccncc3)CC1=CCC1C2CC[C@]2(C)C(n3cnc4ccccc43)=CCC12` (stereo partly drawn) [Compound 8, N-((3S,10R,13S)-17-(1H-benzo[d]imidazol-1-yl)-10,13-dimethyl-2,3,4,7,8,9,10,11,12,13,14,15-dodecahydro-1H-cyclopenta[a]phenanthren-3-yl)isonicotinamide], for which, in the series with LNCaP cells, the “Maximum Inhibition (%)” value came out at 104.5% and the IC50 stood at 763 nM. For the same molecule, at AR, half-maximal degradation (DC50) was put at 3.76 µM.
As to `Cc1cn(C2=CCC3C4CC=C5C[C@@H](NC(=O)c6ccncc6F)CC[C@]5(C)C4CC[C@]23C)cn1` (stereo partly drawn) [Compound 15, N-((3S,10R,13S)-10,13-dimethyl-17-(4-methyl-1H-imidazol-1-yl)-2,3,4,7,8,9,10,11,12,13,14,15-dodecahydro-1H-cyclopenta[a]phenanthren-3-yl)-3-fluoroisonicotinamide], in the series with LNCaP cells, the “Maximum Inhibition (%)” value is 102.6% and the IC50 stood at 752 nM.
With `Cc1cn(C2=CCC3C4CC=C5C[C@@H](NC(=O)c6cccnc6)CC[C@]5(C)C4CC[C@]23C)cn1` (stereo partly drawn) [Compound 12, N-((3S,10R,13S)-10,13-dimethyl-17-(4-methyl-1H-imidazol-1-yl)-2,3,4,7,8,9,10,11,12,13,14,15-dodecahydro-1H-cyclopenta[a]phenanthren-3-yl)nicotinamide], in the series on LNCaP cells, the “Maximum Inhibition (%)” value is reported as 102.9% and the IC50 stood at 933 nM. On AR, this molecule returned a DC50 of 3.58 µM.
For `C[C@]12CC[C@H](NC(=O)c3ccnnc3)CC1=CCC1C2CC[C@]2(C)C(n3cnc(C#N)c3)=CCC12` (stereo partly drawn) [Compound 25], in the series on LNCaP cells, the “Maximum Inhibition (%)” value stood at 89.52% and the IC50 amounted to 471 nM.
Take `COc1cn(C2=CCC3C4CC=C5C[C@@H](NC(=O)c6ccnnc6)CC[C@]5(C)C4CC[C@]23C)cn1` (stereo partly drawn) [Compound 24]: in the series with LNCaP cells, the “Maximum Inhibition (%)” value came out at 98.02% and the IC50 is 475 nM. Further, the “Anti-tumor activity and efficacy compared to enzalutamide” value in the series on LNCaP cells (in words) was “comparable anti-tumor activity but significantly superior anti-tumor efficacy compared to enzalutamide”. Besides, at AR, it took 3.88 µM to reach half-maximal degradation (DC50).
With `C[C@]12CC[C@H](NC(=O)c3ccnnc3)CC1=CCC1C2CC[C@]2(C)C(n3cnc(C(F)(F)F)c3)=CCC12` (stereo partly drawn) [Compound 22], in the series with LNCaP cells, the “Maximum Inhibition (%)” value stood at 104.1% and the IC50 worked out at 819 nM.
The matching figures for `C[C@]12CC[C@H](NC(=O)c3ccncc3)CC1=CCC1C2CC[C@]2(C)C(c3cccnc3)=CCC12` (stereo partly drawn) [Compound 2, N-((3S,10R,13S)-10,13-dimethyl-17-(pyridin-3-yl)-2,3,4,7,8,9,10,11,12,13,14,15-dodecahydro-1H-cyclopenta[a]phenanthren-3-yl)isonicotinamide]: 93.50% and 851 nM.
